Reference: patent US20180055812A1, “METHOD AND COMPOSITIONS FOR TREATMENT OF CANCER” (priority 2008, published 2018)
Like-named read-outs stand apart in the source and are kept apart here.

Assays:
H460 cells = type: cell-based
A549 cells = type: cell-based
[1] = H460 cells, MTT, 5 days incubation
[2] = A549 cells, MTT, 5 days incubation

SMILES | IC50 (H460 cells) | IC75 (H460 cells) | IC90 (H460 cells) | IC50 (A549 cells) | IC75 (A549 cells) | IC90 (A549 cells) | IC75 (H460 cells; [1]) | IC90 (H460 cells; [1]) | IC50 (H460 cells; H460 non-small cell lung cancer cells, MTT, 5 days incubation) | IC75 (A549 cells; [2]) | IC90 (A549 cells; [2])
O=[As][O-].[Na+] [Sodium Meta Arsenite, sodium meta arsenite] | 10 µM | 20 µM | 30 µM | 13 µM | 19 µM | 17 µM | – | – | – | – | –
N.N.[Cl][Pt][Cl] [Cisplatin, cis-diamminedichloroplatinum (II), reference compound] | – | – | – | – | – | – | 1.7 µM | 2.5 µM | 1 µM | 2 µM | 4 µM
